In patent publication US20060229261A1 (priority 2005, published 2006):

Columns and labels:
[1] = system: patients with chronic constipation; conditions: two trials versus placebo; cited from earlier work
[2] = primarily as inactive metabolites; cited from earlier work
[3] = system: patients with functional constipation; assay: Randomized, dose escalation, placebo controlled clinical study; type: in vivo, human; conditions: daily diaries, dose escalation phase (25, 50, 100 mg once daily)
Source text: A randomized, dose escalation, placebo controlled study is designed to assess the efficacy of the administered formulation in 60 to 120 patients with functional constipation, defined using the Rome II criteria (modified), i.e., at least […] of two or more of the following symptoms: • i. Straining in >25% of defecations; • ii. Lumpy or hard stools in >25% of defecations; • iii. Sensation of incomplete evacuation in >25% of defecations; • iv. Sensation of anorectal obstruction/blockage in >25% of defecations; • v. Manual maneuvers to facilitate >25%, of defecations (e.g. digital evacuation, support of pelvic floor); and/or • vi. <3 evacuations per week. In addition, loose stools are not present, and there are insufficient criteria for a diagnosis of IBS. Moreover, these patients have no evidence of medical disorders that may cause constipation. Patients are symptomatic on entry in the randomization phase of the study, i.e., in the 8-14 day run-in period, on at least 8 days, which need not be consecutive, patients have lumpy or hard stools in >25% of defecations.
Patients are randomized to one of three groups:
Patients randomized to receive treatments a) or b) will receive 25 mg once daily for the first four weeks, 50 mg once daily for the following four weeks and 100 mg once daily for a further four weeks, providing the previous dose was well tolerated. […]

[4] = system: women patients with IBS-C; conditions: 6 mg twice daily; cited from earlier work

Structure (SMILES): OC[C@H]1O[C@@H](O[C@@H]2[C@@H](CO)OC(O)(CO)[C@H]2O)[C@H](O)[C@@H](O)[C@H]1O (mixture of isomers) [lactulose]
- stool frequency and consistency [1]: more effective than placebo

Structure (SMILES): C[C@H]1O[C@H](O[C@H]2[C@H](O)[C@@H](O)[C@@H](O[C@H]3[C@H](O)[C@@H](O)C(O)O[C@@H]3CO)O[C@@H]2CO)[C@H](O)[C@@H](O)[C@@H]1N[C@H]1C=C(CO)[C@@H](O)[C@H](O)[C@H]1O (stereo partly shown) [acarbose]
- oral dose absorbed [2]: About 35%

Structure (SMILES): CN(C)C(=N)N=C(N)N [metformin]
- patient's global impression: answer 'yes' to "do you feel better now after treatment" [3]: at least 50 % of the time

Structure (SMILES): CCCCCNC(=N)N/N=C/c1c[nH]c2ccc(OC)cc12.O=C(O)/C=C\C(=O)O [tegaserod, 3-(5-methoxy-1H-indol-3-ylmethylene)-N-pentylcarbazimidamide hydrogen maleate]
- global and individual symptoms [4]: effectively improves global and individual symptoms
